Data: paper PMC5564600 (Oncotarget, 2017)

How the values were obtained:
Assay in all cases: biochemical
Assay type in all cases: binding
panel of 442 kinases [1] = target: T1, panel of 442 kinases (Homo sapiens, UniProt P00533, T790M); conditions: EGFR(T790M); for remaining activity at 1 µM: read-out: % of control at 1 µM
T1 construct: purchased Ambit Biosciences (scanMAXX KINOMEscan)

panel of 442 kinases [2] = target: T2, panel of 442 kinases (Homo sapiens, UniProt P06213); conditions: kinase INSR; for remaining activity at 1 µM: read-out: % of control at 1 µM
T2 construct: purchased Ambit Biosciences (scanMAXX KINOMEscan)
T2 sequence (P06213 28-1382): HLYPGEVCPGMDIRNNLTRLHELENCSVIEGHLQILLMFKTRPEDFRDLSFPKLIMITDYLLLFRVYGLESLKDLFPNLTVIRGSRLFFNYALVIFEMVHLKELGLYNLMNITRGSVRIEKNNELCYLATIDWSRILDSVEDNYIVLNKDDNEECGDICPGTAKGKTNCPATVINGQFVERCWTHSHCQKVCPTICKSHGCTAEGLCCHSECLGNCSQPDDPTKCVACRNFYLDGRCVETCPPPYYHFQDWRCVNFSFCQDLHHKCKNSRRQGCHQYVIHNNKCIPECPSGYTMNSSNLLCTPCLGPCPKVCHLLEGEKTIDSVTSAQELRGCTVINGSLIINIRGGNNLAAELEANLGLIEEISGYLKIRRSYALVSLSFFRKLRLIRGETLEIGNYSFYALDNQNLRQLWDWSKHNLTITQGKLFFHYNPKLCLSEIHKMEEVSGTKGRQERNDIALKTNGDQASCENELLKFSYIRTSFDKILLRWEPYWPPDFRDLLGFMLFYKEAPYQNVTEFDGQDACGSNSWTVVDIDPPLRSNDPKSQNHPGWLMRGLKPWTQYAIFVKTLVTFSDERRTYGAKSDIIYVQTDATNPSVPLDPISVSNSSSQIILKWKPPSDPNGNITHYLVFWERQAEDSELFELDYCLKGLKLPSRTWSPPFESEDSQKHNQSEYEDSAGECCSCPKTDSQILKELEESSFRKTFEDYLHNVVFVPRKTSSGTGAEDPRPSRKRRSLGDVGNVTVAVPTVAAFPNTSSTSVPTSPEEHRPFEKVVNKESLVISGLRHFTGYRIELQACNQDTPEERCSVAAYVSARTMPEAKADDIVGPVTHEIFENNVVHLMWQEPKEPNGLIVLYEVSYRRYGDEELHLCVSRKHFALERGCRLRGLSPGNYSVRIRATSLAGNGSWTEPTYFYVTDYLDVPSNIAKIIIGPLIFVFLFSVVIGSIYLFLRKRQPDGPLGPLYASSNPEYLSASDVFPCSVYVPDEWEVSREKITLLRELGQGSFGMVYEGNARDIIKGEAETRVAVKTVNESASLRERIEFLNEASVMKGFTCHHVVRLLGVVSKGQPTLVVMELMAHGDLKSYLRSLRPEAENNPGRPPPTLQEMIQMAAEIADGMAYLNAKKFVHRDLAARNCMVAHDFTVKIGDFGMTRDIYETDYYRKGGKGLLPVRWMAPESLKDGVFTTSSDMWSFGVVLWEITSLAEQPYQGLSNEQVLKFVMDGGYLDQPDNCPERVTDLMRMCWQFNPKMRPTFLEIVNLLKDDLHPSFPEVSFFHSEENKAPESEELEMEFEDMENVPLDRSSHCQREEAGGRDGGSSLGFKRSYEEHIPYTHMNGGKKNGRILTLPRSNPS

panel of 442 kinases [3] = target: T3, panel of 442 kinases (Homo sapiens, UniProt P33981); conditions: kinase TTK; for remaining activity at 1 µM: read-out: TTK (% of control at 1 µM)
T3 construct: purchased Ambit Biosciences (scanMAXX KINOMEscan)
T3 sequence (P33981 1-857): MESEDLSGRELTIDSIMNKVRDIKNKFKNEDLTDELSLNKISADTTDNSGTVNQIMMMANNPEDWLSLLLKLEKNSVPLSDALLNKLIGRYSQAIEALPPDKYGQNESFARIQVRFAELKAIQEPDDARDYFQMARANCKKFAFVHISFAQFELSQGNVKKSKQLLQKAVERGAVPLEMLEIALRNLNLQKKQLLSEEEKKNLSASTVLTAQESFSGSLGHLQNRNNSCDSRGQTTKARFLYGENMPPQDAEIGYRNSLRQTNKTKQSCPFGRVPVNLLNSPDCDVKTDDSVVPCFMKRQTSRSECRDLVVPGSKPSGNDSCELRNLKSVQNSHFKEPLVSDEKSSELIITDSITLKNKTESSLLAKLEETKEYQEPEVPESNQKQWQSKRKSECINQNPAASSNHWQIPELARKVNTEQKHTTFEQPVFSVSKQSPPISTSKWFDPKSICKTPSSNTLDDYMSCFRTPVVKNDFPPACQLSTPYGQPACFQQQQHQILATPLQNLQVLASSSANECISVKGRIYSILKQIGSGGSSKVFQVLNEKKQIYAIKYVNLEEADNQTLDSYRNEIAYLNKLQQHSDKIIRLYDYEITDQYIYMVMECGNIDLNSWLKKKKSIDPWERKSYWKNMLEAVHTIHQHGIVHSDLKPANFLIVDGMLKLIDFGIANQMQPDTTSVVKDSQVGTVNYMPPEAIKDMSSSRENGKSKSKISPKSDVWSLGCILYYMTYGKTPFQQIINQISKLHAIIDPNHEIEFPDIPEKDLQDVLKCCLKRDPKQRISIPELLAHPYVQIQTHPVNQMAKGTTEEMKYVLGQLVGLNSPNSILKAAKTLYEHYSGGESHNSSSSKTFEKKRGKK

panel of 442 kinases [4] = target: T4, panel of 442 kinases (Homo sapiens, UniProt P48730); conditions: CSNK1D; for remaining activity at 1 µM: read-out: % of control at 1 µM
T4 construct: purchased Ambit Biosciences (scanMAXX KINOMEscan)
T4 sequence (P48730 whole entry): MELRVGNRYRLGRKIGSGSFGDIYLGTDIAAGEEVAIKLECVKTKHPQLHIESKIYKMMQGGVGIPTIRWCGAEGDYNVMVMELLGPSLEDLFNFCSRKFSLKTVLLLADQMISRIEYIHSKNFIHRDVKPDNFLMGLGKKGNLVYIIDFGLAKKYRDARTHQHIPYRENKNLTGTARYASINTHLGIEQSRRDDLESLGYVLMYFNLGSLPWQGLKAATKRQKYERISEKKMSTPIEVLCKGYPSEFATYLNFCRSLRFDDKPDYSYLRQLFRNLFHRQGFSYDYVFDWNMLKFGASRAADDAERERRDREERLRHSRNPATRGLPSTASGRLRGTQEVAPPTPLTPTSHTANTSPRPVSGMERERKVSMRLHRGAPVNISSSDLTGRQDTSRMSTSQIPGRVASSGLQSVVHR

panel of 442 kinases [5] = target: T5, panel of 442 kinases (Homo sapiens, UniProt P50613); conditions: CDK7; for remaining activity at 1 µM: read-out: % of control at 1 µM
T5 construct: purchased Ambit Biosciences (scanMAXX KINOMEscan)
T5 sequence (P50613 whole entry): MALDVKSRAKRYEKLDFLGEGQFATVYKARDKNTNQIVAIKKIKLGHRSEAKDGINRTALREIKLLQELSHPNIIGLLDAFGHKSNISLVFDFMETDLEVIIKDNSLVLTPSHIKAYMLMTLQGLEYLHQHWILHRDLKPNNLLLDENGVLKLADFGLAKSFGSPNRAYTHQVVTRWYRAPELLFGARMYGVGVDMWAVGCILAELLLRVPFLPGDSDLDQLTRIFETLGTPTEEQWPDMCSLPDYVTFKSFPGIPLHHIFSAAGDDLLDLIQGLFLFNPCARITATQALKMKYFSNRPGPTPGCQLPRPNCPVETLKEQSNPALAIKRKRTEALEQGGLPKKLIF

panel of 442 kinases [6] = target: T6, panel of 442 kinases (Homo sapiens, UniProt P57058); conditions: kinase HUNK; for remaining activity at 1 µM: read-out: % of control at 1 µM
T6 construct: purchased Ambit Biosciences (scanMAXX KINOMEscan)
T6 sequence (P57058 1-714): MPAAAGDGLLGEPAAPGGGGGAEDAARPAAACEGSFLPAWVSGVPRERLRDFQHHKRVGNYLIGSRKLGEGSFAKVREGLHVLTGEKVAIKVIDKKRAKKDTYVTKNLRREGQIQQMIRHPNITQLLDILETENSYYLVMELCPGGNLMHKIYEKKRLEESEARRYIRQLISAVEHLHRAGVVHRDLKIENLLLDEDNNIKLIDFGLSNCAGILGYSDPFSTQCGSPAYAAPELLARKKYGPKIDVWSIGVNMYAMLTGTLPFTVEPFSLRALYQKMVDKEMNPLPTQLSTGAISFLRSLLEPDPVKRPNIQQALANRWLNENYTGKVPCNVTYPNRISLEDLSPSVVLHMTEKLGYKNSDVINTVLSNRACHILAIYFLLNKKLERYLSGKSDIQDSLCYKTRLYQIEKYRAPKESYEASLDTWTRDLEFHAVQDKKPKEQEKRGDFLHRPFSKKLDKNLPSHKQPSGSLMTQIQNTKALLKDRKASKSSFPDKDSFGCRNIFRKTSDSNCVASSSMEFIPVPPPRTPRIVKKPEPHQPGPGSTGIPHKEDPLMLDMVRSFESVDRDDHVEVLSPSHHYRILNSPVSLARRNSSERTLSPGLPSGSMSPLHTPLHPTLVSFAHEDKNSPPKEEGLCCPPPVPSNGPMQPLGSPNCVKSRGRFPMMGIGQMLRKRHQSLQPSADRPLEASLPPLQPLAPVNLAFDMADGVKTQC

panel of 442 kinases [7] = target: T7, panel of 442 kinases (Homo sapiens, UniProt Q15759); conditions: kinase p38-beta; for remaining activity at 1 µM: read-out: % of control at 1 µM
T7 construct: purchased Ambit Biosciences (scanMAXX KINOMEscan)
T7 sequence (Q15759 whole entry): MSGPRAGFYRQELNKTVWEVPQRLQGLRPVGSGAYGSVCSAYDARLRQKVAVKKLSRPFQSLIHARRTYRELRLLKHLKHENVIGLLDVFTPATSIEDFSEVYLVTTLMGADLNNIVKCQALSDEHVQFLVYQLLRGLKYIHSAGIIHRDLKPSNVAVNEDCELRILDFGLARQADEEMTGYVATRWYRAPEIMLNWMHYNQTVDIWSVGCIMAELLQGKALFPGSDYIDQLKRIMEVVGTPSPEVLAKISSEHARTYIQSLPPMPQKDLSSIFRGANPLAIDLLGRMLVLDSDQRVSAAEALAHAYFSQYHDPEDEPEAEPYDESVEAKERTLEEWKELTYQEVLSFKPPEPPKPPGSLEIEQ

panel of 442 kinases [8] = target: T8, panel of 442 kinases (Homo sapiens, UniProt Q92772); conditions: CDKL2; for remaining activity at 1 µM: read-out: % of control at 1 µM
T8 construct: purchased Ambit Biosciences (scanMAXX KINOMEscan)
T8 sequence (Q92772 1-493): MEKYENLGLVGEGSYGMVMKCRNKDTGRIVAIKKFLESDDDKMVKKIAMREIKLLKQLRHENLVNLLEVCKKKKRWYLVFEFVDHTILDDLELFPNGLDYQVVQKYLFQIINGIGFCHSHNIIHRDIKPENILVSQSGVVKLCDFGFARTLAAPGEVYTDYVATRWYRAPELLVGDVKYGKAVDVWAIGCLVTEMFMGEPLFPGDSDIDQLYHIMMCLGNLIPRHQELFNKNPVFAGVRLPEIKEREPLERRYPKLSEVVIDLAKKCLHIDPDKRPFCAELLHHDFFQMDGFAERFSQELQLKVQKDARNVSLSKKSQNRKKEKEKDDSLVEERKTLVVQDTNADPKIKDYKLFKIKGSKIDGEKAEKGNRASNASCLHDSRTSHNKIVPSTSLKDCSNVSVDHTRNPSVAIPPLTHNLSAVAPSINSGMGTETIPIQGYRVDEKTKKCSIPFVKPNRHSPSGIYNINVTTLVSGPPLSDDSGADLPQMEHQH

panel of 442 kinases [9] = target: T9, panel of 442 kinases (Homo sapiens, UniProt Q96RR4); conditions: CAMKK2; for remaining activity at 1 µM: read-out: % of control at 1 µM
T9 construct: purchased Ambit Biosciences (scanMAXX KINOMEscan)
T9 sequence (Q96RR4 whole entry): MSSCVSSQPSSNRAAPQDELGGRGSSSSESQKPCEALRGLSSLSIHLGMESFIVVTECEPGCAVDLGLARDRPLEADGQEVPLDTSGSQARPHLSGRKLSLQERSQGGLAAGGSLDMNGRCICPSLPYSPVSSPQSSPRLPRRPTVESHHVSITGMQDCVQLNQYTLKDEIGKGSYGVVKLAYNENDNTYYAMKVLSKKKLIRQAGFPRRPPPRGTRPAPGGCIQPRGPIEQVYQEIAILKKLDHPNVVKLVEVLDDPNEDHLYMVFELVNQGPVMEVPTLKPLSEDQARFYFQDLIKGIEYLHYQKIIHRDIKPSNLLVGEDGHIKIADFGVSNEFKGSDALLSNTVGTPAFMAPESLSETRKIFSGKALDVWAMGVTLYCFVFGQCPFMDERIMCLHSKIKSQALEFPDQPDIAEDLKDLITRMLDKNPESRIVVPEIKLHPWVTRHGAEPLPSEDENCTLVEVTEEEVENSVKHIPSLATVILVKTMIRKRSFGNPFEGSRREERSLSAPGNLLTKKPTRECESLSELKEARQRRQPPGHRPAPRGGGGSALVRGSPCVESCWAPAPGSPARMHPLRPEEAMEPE

panel of 442 kinases [10] = target: T10, panel of 442 kinases (Homo sapiens, UniProt Q9BUB5); conditions: kinase MKNK1; for remaining activity at 1 µM: read-out: % of control at 1 µM
T10 construct: purchased Ambit Biosciences (scanMAXX KINOMEscan)
T10 sequence (Q9BUB5 whole entry): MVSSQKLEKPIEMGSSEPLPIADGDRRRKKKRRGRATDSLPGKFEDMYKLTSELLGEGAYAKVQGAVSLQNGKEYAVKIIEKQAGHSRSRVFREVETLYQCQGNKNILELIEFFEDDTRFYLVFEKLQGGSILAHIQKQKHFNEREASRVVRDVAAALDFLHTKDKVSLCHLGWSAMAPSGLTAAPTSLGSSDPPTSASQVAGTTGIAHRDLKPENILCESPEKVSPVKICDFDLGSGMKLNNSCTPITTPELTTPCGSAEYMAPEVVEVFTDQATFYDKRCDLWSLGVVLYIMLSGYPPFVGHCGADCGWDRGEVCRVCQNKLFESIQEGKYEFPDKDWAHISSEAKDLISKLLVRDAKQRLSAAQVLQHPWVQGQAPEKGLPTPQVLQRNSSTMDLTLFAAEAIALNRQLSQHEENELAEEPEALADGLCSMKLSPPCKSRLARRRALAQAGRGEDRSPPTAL

panel of 442 kinases [11] = target: T11, panel of 442 kinases (Homo sapiens, UniProt Q9P1W9); conditions: kinase PIM2; for remaining activity at 1 µM: read-out: % of control at 1 µM
T11 construct: purchased Ambit Biosciences (scanMAXX KINOMEscan)
T11 sequence (Q9P1W9 whole entry): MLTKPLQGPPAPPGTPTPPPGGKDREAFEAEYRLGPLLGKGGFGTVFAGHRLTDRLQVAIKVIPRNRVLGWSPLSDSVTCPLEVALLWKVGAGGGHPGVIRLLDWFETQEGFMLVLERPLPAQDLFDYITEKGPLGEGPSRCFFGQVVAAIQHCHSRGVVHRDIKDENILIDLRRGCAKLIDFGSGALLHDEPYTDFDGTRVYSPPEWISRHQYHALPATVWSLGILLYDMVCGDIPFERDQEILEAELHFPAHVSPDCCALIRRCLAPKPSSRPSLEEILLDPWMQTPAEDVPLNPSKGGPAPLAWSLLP

[12] = 10 µM, read-out: % of control at 10 µM

T1 sequence (P00533 25-1210 T790M): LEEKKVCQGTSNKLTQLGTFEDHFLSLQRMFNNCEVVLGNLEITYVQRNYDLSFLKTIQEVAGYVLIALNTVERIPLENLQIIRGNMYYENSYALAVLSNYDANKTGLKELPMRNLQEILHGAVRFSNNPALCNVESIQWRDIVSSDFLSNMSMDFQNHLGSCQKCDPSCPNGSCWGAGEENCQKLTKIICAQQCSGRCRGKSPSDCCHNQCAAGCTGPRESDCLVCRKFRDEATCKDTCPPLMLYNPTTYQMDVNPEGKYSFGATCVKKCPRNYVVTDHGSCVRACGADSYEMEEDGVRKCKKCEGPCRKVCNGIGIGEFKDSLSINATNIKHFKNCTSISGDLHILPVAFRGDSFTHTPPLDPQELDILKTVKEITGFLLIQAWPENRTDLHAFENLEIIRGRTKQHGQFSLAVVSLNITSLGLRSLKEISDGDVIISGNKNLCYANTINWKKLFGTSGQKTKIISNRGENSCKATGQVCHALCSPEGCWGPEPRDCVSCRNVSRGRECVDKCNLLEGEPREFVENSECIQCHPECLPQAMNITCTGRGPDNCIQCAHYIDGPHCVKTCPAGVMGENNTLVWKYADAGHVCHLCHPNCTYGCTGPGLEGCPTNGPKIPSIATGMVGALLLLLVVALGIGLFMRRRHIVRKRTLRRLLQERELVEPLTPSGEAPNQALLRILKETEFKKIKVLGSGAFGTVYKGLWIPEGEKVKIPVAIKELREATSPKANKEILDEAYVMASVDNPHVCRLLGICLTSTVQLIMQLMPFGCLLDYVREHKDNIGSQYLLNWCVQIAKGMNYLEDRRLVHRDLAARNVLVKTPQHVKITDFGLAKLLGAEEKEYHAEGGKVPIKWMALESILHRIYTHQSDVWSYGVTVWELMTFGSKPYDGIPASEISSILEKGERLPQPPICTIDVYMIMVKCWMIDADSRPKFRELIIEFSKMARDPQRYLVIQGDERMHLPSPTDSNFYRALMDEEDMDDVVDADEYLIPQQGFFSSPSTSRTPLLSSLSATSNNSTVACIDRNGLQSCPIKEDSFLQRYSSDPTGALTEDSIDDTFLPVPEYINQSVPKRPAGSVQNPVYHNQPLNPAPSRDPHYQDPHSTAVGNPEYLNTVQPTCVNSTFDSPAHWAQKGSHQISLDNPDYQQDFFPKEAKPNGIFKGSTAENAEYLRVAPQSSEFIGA

| Structure (SMILES) | remaining activity at 1 µM (panel of 442 kinases [1]) | remaining activity at 1 µM (panel of 442 kinases [2]) | remaining activity at 1 µM (panel of 442 kinases [3]) | remaining activity at 1 µM (panel of 442 kinases [4]) | remaining activity at 1 µM (panel of 442 kinases [5]) | remaining activity at 1 µM (panel of 442 kinases [6]) | remaining activity at 1 µM (panel of 442 kinases [7]) | remaining activity at 1 µM (panel of 442 kinases [8]) | remaining activity at 1 µM (panel of 442 kinases [9]) | remaining activity at 1 µM (panel of 442 kinases [10]) | remaining activity at 1 µM (panel of 442 kinases [11]) | other results |
| --- | --- | --- | --- | --- | --- | --- | --- | --- | --- | --- | --- | --- |
| Nc1cc(C(F)(F)F)c(-c2cc(N3CCOCC3)nc(N3CCOCC3)n2)cn1 [Buparlisib] | 73% | 91% | 100% | 92% | 93% | 100% | 99% | 66% | 100% | 100% | 91% | remaining activity at 10 µM (panel of 442 kinases [1]; [12]): 69%; remaining activity at 10 µM (panel of 442 kinases [2]; [12]): 77%; remaining activity at 10 µM (panel of 442 kinases [3]; 10 µM, read-out: TTK (% of control at 10 µM)): 85%; remaining activity at 10 µM (panel of 442 kinases [4]; [12]): 75%; remaining activity at 10 µM (panel of 442 kinases [5]; [12]): 100%; remaining activity at 10 µM (panel of 442 kinases [6]; [12]): 100%; remaining activity at 10 µM (panel of 442 kinases [7]; [12]): 91%; remaining activity at 10 µM (panel of 442 kinases [8]; [12]): 100%; remaining activity at 10 µM (panel of 442 kinases [9]; [12]): 100%; remaining activity at 10 µM (panel of 442 kinases [10]; [12]): 100%; remaining activity at 10 µM (panel of 442 kinases [11]; [12]): 100% |
| COc1ncc(-c2ccc3nccc(-c4ccnnc4)c3c2)cc1NS(=O)(=O)c1ccc(F)cc1F [Omipalisib] | 100% | 92% | 76% | 100% | 100% | 74% | 100% | 90% | 71% | 43% | 98% |  |
| FC(F)c1nc2ccccc2n1-c1nc(N2CCOCC2)nc(N2CCOCC2)n1 [ZSTK474, 2-(difluoromethyl)-1-[4,6-di(4-morpholinyl)-1,3,5-triazin-2-yl]-1H-benzimidazole] | 100% | 94% | 100% | 67% | 68% | 100% | 70% | 100% | 100% | 92% | 100% |  |
| Cn1c(=O)n(-c2ccc(C(C)(C)C#N)cc2)c2c3cc(-c4cnc5ccccc5c4)ccc3ncc21 [Dactolisib, 2-methyl-2-[4-(3-methyl-2-oxo-8-quinolin-3-yl-2,3-dihydroimidazo[4,5-c]quinolin-1-yl)-phenyl] propionitrile] | 100% | 74% | 49% | 76% | 57% | 93% | 99% | 26% | 52% | 100% | 100% |  |
